According to patent US20240287136A1, “PHARMACEUTICAL COMPOSITION AND THE USE THEREOF IN THE TREATMENT OF AUTOIMMUNE DISEASES” (Singapore Health Services Pte. Ltd., priority 2016, published 2024):

Tests used:
CD4+ sorted cells = assay: PD-1 / PDL1 expression on CD4+ T cells co-cultured with HCQ-treated mDC; type: cell-based, human
Protocol: (§1) FIG. 6. […] CD4+ sorted cells were co-cultured with the mDC-treated groups for an additional 24 hours. The expression of PD-1 (MFI: 187 vs 212, T(x)=26.4, p<0.01) and intracellular PD-1 (MFI: 46 vs 222, T(x) 161, p<0.01) was increased in T cells when co-cultured with HCQ-treated mDC. h.
(§2) MFI=Mean Fluorescence Index. […] MFI=Mean Fluorescence Index Sorted CD4+ T cells were then co-cultured with mDCs for an additional 24 hours.
Monocyte-derived dendritic cells (DCs) were isolated from healthy controls and activated with lipopolysaccharide (LPS). […] HCQ-treated and untreated mature DCs were then co-cultured with CD4+ T cells to assess the potential of these DCs in activating the T cells.

[1] = system: Monocyte-derived, LPS-induced dendritic cells (mDC); assay: Marker expression on monocyte-derived, LPS-induced dendritic cells treated in vitro with HCQ; type: cell-based, human
Protocol: FIG. 6. […] CD4+ sorted cells were co-cultured with the mDC-treated groups for an additional 24 hours.
as §2

[2] = system: T cells cocultured with mDC; assay: Gene expression of regulatory molecules in T cells co-cultured with mDC+HCQ; type: cell-based, human
Protocol: as §1
Data are expressed as 2(−dCT)×100 of GAPDH.
as §2

[3] = system: patients with early rheumatoid arthritis; assay: Phase II trial of mucosal tolerization to SEQ ID NO. 1: clinical outcome; type: in vivo, human
Protocol: The model employed here is based on the hypothesis that immune tolerization to a T-cell epitope, such as SEQ ID NO. 1 that may be a contributor of inflammation in patients with rheumatoid arthritis, may lead to detectable clinical improvement. A total of 96 patients with early rheumatoid arthritis, who were not allowed on Methotrexate or biologics, were tested with mucosal tolerization to SEQ ID NO. 1. Patients are defined as “responders” if they meet the response criteria at any time during the study. […] SEQ ID NO. […]

CCN(CCO)CCCC(C)Nc1ccnc2cc(Cl)ccc12 (stereo not shown) [HCQ, hydroxychloroquine]
expression of intracellular PD-1 in T cells (CD4+ sorted cells; CD4+ cells co-cultured 24 hours with HCQ-treated mDC, control 46): 222 MFI
expression of PD-1 in T cells (CD4+ sorted cells; CD4+ cells co-cultured 24 hours with HCQ-treated mDC, control 187): 212 MFI
expression of PDL1 on CD4+ T cells (CD4+ sorted cells; cultured in the presence of HCQ-treated DCs (FIG. 12B)): expressed more
expression of HLA-DR on mDC ([1]; control 100): 20.8 MFI
expression of CD200 on mDC ([1]; control 264): 409 MFI
expression of IL-10 in mDC ([1]; control 453): 1045 MFI
expression of CD86 on mDC ([1]; control 37983): 34170 MFI
Gene expression of CTLA-4 in T cells ([2]; without HCQ 1.74): 15.06 2(−dCT)×100 of GAPDH
Gene expression of FoxP3 in T cells ([2]; without HCQ 3.06): 12.27 2(−dCT)×100 of GAPDH
Gene expression of IL-10 in T cells ([2]; without HCQ 3.71): 7.57 2(−dCT)×100 of GAPDH
Gene expression of TGF β in T cells ([2]; without HCQ 15.00): 23.85 2(−dCT)×100 of GAPDH
effect on the therapeutic activity of SEQ ID NO: 1 ([3]; HCQ use preceding SEQ ID NO: 1 administration): synergistic effect
clinical control ([3]; post hoc evaluation of Phase II trial, preceding use of HCQ in combination with SEQ ID NO. 1 treatment): favored clinical control
